Patent US20020137929A1, “1 - (3-heterocyclylphenyl) isothiourea, -isourea, -guanidine and -amidine herbicidal agents” (Intellectual Property Department, BASF Aktiengesellschaft, priority 1998, published 2002)

Columns and labels:
ECHCG (Barnyardgrass) = assay: Preemergence herbicidal evaluation; format: in vivo, Echinochloa crus-galli; conditions: rated 4-5 weeks after treatment
Outline: (§1)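 Sown cups got a single aqueous acetone spray of test compound (roughly 0.0156–0.500 kg/ha) before seedlings emerged. Evaluation, 4–5 weeks on, used a 0–9 visual scale covering plant stand, vigor, size, malformation, chlorosis and general appearance compared with controls.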

ORYSAT (Rice, Tebonnet) = assay: Postemergence herbicidal evaluation; format: in vivo, Oryza sativa, (L.) Tebonnet; conditions: postemergence
Outline: (§2)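 Herbicidal effect was judged by eye on a 0–9 scale covering stand, vigor, deformity, size and chlorosis, compared with controls, four to five weeks after seedlings about two weeks old were sprayed (40 psi, ~0.0156–0.500 kg/ha).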

SETVI (Foxtail, Green) [1] = assay: Preemergence herbicidal evaluation; format: in vivo, Setaria viridis; conditions: rated 4-5 weeks after treatment
Outline: as §1

[2] = test system: SAGPY (Arrowhead (Pygmaea)); assay: Postemergence weed control under flooded paddy conditions; format: in vivo, Sagittaria pygmaea; conditions: postemergence weeds, 3-4 weeks after treatment
Outline: (§3)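 Herbicidal effect is judged by eye on a 0–9 scale versus control, 3–4 weeks after dosing. Dosing is into flood water kept 1.5–3 cm over the soil, at about 0.0313–0.500 kg/ha in aqueous/acetone 50/50 v/v, on 3–5 cm weeds and 1.5–2.5-leaf rice seedlings.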

SETVI (Foxtail, Green) [3] = assay: Postemergence herbicidal evaluation; format: in vivo, Setaria viridis; conditions: postemergence
Outline: as §2

[4] = test system: ECHORC (Watergrass (Calif.)); assay: Preemergence weed control under flooded paddy conditions; format: in vivo, Echinochloa oryzoides; conditions: rated 3-4 weeks after treatment
Outline: (§4)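 Herbicidal effect is scored visually on a 0-9 scale against an untreated control, three to four weeks after compounds are pipetted into the flood water (1.5 to 3 cm deep) over seeds planted in silt loam at 0.5 cm depth. Rates: about 0.0313 to 0.500 kg/ha.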

ZEAMX (Corn, Field) [5] = assay: Preemergence herbicidal evaluation; format: in vivo, Zea mays; conditions: rated 4-5 weeks after treatment
Outline: as §1

CYPIR (Rice Flatsedge) [6] = assay: Postemergence weed control under flooded paddy conditions; format: in vivo, Cyperus iria; conditions: postemergence weeds, 3-4 weeks after treatment
From the text: Results of herbicide evaluation are expressed on a rating scale (0-9). The scale is based upon a visual observation of plant stand, vigor, malformation, size, chlorosis and overall plant appearance as compared with a control.
Plastic containers containing weeds which are 3 to 5 cm tall and rice seedlings at the 1.5 to 2.5 leaf stage are flooded with water. The water is maintained at 1.5 to 3 cm above the soil surface for the duration of the experiment. Test compounds are applied as aqueous/ acetone mixtures 50/50 v/v directly into the flood water to provide the equivalent of about 0.0313 to 0.500 kg/ha of active ingredient. The treated containers are placed on greenhouse benches and cared for in accordance with conventional greenhouse procedures. Three to four weeks after treatment, the test is terminated and each container is examined and herbicidal effect rated according to the rating system provided in Example 37. The compounds evaluated are reported by compound number given in Example 37.

[7] = test system: TRZAWR (Wheat, Winter, cv Riband); assay: Preemergence herbicidal evaluation; format: in vivo, Triticum aestivum; conditions: rated 4-5 weeks after treatment
Outline: as §1

[8] = test system: ECHORC (Watergrass (Calif.)); assay: Postemergence weed control under flooded paddy conditions; format: in vivo, Echinochloa oryzoides; conditions: postemergence weeds, 3-4 weeks after treatment
Outline: as §3

ZEAMX (Corn, Field) [9] = assay: Postemergence herbicidal evaluation; format: in vivo, Zea mays; conditions: postemergence
Outline: as §2

CYPIR (Rice Flatsedge) [10] = assay: Preemergence weed control under flooded paddy conditions; format: in vivo, Cyperus iria; conditions: rated 3-4 weeks after treatment
Outline: as §4

What does the source list for CCOC(=O)CN1C(=O)C(Cc2ccccc2)SC1=Nc1cc(-n2c(=O)cc(C(F)(F)F)n(C)c2=O)c(F)cc1Cl (centres unmarked) [Compound 24, Ethyl 5-benzyl-2-{{2-chloro-5-[3,6-dihydro-3-methyl-2,6-dioxo-4-(trifluoromethyl)-1(2H)-pyrimidinyl]-4-fluorophenyl}imino}-4-oxo-3-thiazolidineacetate]?
ECHCG preemergence herbicidal rating (ECHCG (Barnyardgrass); rate 0.0625 kg/ha): 0.0; ECHCG preemergence herbicidal rating (ECHCG (Barnyardgrass); rate 0.1250 kg/ha): 0.0; ECHCG preemergence herbicidal rating (ECHCG (Barnyardgrass); rate 0.2500 kg/ha): 0.0; ORYSAT herbicidal rating (ORYSAT (Rice, Tebonnet); rate 0.0158 kg/ha): 2.5; ORYSAT herbicidal rating (ORYSAT (Rice, Tebonnet); rate 0.0315 kg/ha): 3.0; ORYSAT herbicidal rating (ORYSAT (Rice, Tebonnet); rate 0.0630 kg/ha): 3.0; SETVI preemergence herbicidal rating (SETVI (Foxtail, Green) [1]; rate 0.0625 kg/ha): 0.0; SETVI preemergence herbicidal rating (SETVI (Foxtail, Green) [1]; rate 0.1250 kg/ha): 0.0; SETVI preemergence herbicidal rating (SETVI (Foxtail, Green) [1]; rate 0.2500 kg/ha): 1.0; Herbicidal rating SAGPY ([2]; rate 0.0313 kg/ha): 0.0; Herbicidal rating SAGPY ([2]; rate 0.0625 kg/ha): 0.0; Herbicidal rating SAGPY ([2]; rate 0.1250 kg/ha): 0.0; Herbicidal rating SAGPY ([2]; rate 0.2500 kg/ha): 0.0; SETVI herbicidal rating (SETVI (Foxtail, Green) [3]; rate 0.0158 kg/ha): 0.0; SETVI herbicidal rating (SETVI (Foxtail, Green) [3]; rate 0.0315 kg/ha): 0.0; SETVI herbicidal rating (SETVI (Foxtail, Green) [3]; rate 0.0630 kg/ha): 0.0; Herbicidal rating ECHORC ([4]; 0.0313 kg/ha): 4.0; Herbicidal rating ECHORC ([4]; 0.0625 kg/ha): 9.0; Herbicidal rating ECHORC ([4]; 0.1250 kg/ha): 9.0; Herbicidal rating ECHORC ([4]; 0.2500 kg/ha): 9.0; ZEAMX preemergence herbicidal rating (ZEAMX (Corn, Field) [5]; rate 0.0625 kg/ha): 0.0; ZEAMX preemergence herbicidal rating (ZEAMX (Corn, Field) [5]; rate 0.1250 kg/ha): 0.0; ZEAMX preemergence herbicidal rating (ZEAMX (Corn, Field) [5]; rate 0.2500 kg/ha): 1.0; Herbicidal rating CYPIR (CYPIR (Rice Flatsedge) [6]; rate 0.0313 kg/ha): 0.0; Herbicidal rating CYPIR (CYPIR (Rice Flatsedge) [6]; rate 0.0625 kg/ha): 0.0; Herbicidal rating CYPIR (CYPIR (Rice Flatsedge) [6]; rate 0.1250 kg/ha): 0.0; Herbicidal rating CYPIR (CYPIR (Rice Flatsedge) [6]; rate 0.2500 kg/ha): 0.0; TRZAWR preemergence herbicidal rating ([7]; rate 0.0625 kg/ha): 0.0; TRZAWR preemergence herbicidal rating ([7]; rate 0.1250 kg/ha): 0.0; TRZAWR preemergence herbicidal rating ([7]; rate 0.2500 kg/ha): 0.0; Herbicidal rating ECHORC ([8]; rate 0.0313 kg/ha): 4.0; Herbicidal rating ECHORC ([8]; rate 0.0625 kg/ha): 9.0; Herbicidal rating ECHORC ([8]; rate 0.1250 kg/ha): 9.0; Herbicidal rating ECHORC ([8]; rate 0.2500 kg/ha): 9.0; ZEAMX herbicidal rating (ZEAMX (Corn, Field) [9]; rate 0.0158 kg/ha): 4.0; ZEAMX herbicidal rating (ZEAMX (Corn, Field) [9]; rate 0.0315 kg/ha): 4.5; ZEAMX herbicidal rating (ZEAMX (Corn, Field) [9]; rate 0.0630 kg/ha): 5.5; Herbicidal rating CYPIR (CYPIR (Rice Flatsedge) [10]; 0.0313 kg/ha): 0.0; Herbicidal rating CYPIR (CYPIR (Rice Flatsedge) [10]; 0.0625 kg/ha): 0.0; Herbicidal rating CYPIR (CYPIR (Rice Flatsedge) [10]; 0.1250 kg/ha): 0.0; Herbicidal rating CYPIR (CYPIR (Rice Flatsedge) [10]; 0.2500 kg/ha): 0.0
